Results taken from ChEMBL document CHEMBL1158183, “Use of self-organizing maps and molecular descriptors to predict the cytotoxic activity of sesquiterpene lactones” (2008).

Test system: KB
Assay: Cytotoxicity against human KB cells
Type: functional
Details: read-out: ED50 (the source's name)

## C=C1C(=O)O[C@H]2C/C(C)=C/C[C@@H](OC(C)=O)/C(C)=C/[C@@H](OC(C)=O)[C@@H]12 [CHAMMISSONIN DIACETATE]
  EC50: 6.12 µM

## C=C1C(=O)O[C@@H]2/C=C(/CO)[C@@H](OC(C)=O)C[C@H](O)/C(C)=C\[C@@H](OC(=O)/C(C)=C/C)[C@@H]12 [EUPACUNOLIN]
  EC50: 8.8 µM

## C=C[C@@]12COC(=O)C(=C)[C@@H]1[C@H]1OC(=O)C(=C)[C@@H]1[C@@H](OC(=O)C(=C)C)C2 [VERNOLEPIN METHACRYLATE]
  EC50: 1.22 µM

## C=C1C(=O)O[C@H]2C=C(C)[C@H]3[C@@H](OC(C)=O)C[C@@](C)(O)[C@@H]3C[C@H]12 [GAILLARDIN]
  EC50: 7.52 µM

## C=C1C(=O)O[C@H]2C[C@@H](C)[C@@H]3C=CC(=O)[C@@]3(C)C[C@H]12 [AROMATICIN]
  EC50: 1.38 µM

## C=C[C@@]12COC(=O)C(=C)[C@@H]1[C@H]1OC(=O)C(=C)[C@@H]1[C@@H](O)C2 [VERNOLEPIN]
  EC50: 6.52 µM

## C=C1C(=O)O[C@H]2C[C@@H](C)[C@@H]3C=CC(=O)[C@@]3(C)[C@H](O)[C@H]12 [MEXICANIN I]
  EC50: 1.26 µM

## C=C1C(=O)O[C@H]2C[C@@]3(C)O[C@@H]3CC/C(C(=O)OC)=C\C[C@H]12 [HIRUSUTOLIDE]
  EC50: 7 µM

## C=C[C@]12COC(=O)C(=C)[C@H]1[C@H](OC(C)=O)[C@H]1C(=C)C(=O)O[C@@H]1C2 [VERNOMENIN ACETATE]
  EC50: 26.2 µM

## C=C1[C@@H]2[C@H]3OC(=O)C(=C)[C@@H]3CCC(=C)[C@@H]2C[C@@H]1O[C@@H]1O[C@H](CO)[C@@H](O)[C@H](O)[C@H]1O [VERNOFLEXUOSIDE]
  EC50: 19 µM

## C=C1[C@@H]2[C@H]3OC(=O)C(=C)[C@@H]3CCC(=C)[C@@H]2C[C@@H]1O[C@@H]1O[C@H](COC(C)=O)[C@@H](OC(C)=O)[C@H](OC(C)=O)[C@H]1OC(C)=O [VERNOFLEXUOSIDE TETRA ACETYL]
  EC50: 8.75 µM

## C=C1C(=O)O[C@@H]2/C=C(\CO)CC/C=C(\CO)C[C@H](OC(=O)C(C)C)[C@@H]12 [ALATOLIDE]
  EC50: 4 µM

## C=C1C(=O)O[C@@H]2[C@H]1CC[C@H](C)[C@]1(O)CCC(=O)[C@@]21C [CORONOPILIN]
  EC50: 5.49 µM

## C=C1C(=O)O[C@@H]2C[C@@H](C)[C@@H]3C=CC(=O)[C@@]3(C)[C@@H](O)[C@H]12 [HELENALIN]
  EC50: 0.76 µM

## C=C1CC(OC(=O)/C(C)=C/C)C2C(=C)C(=O)OC2/C=C(\C)C(O)CC1O (centres undefined) [HYDROXYISONOBILIN]
  EC50: 3.7 µM

## C=C1C(=O)O[C@H]2[C@H]1[C@H](OC(=O)/C(C)=C\C)C[C@@]1(CO1)[C@@H]1[C@H](O)[C@H]3O[C@@]3(C)[C@]21O
  EC50: 0.63 µM

## C=C1C(=O)O[C@@H]2/C=C(\C)[C@@H](OC(C)=O)C/C=C(/C)C(O)[C@@H](OC(=O)/C(C)=C\C)[C@@H]12 (some centres undefined) [EUPATOCUNIN]
  EC50: 0.27 µM

## C=C1C(=O)O[C@@H]2/C=C(/C)[C@@]3(O)C=C[C@@](C)(C[C@@H](OC(=O)/C(=C\C)COC(C)=O)[C@@H]12)O3 [LIATRIN]
  EC50: 3.93 µM

## C=C1C(=O)O[C@H]2[C@H]1[C@@H](OC(=O)C=C(C)C)CC1=C[C@@H](C[C@@]3(C)O[C@H]23)OC1=O [ELEPHANTIN]
  EC50: 3.22 µM

## C=C1C(=O)O[C@@H]2/C=C(\C)[C@H](O)C/C=C(\C)CC[C@@H]12 [TAMAULIPIN B]
  EC50: 10.5 µM

## C=C1[C@H](O)C[C@H](O)[C@]2(C)CC[C@@H]3[C@H](OC(=O)[C@H]3C)[C@@H]12 [ERIVANIN]
  EC50: 1.1 µM

## C=C1C(=O)O[C@@H]2[C@H]1CC[C@H](C)[C@]1(O)C=CC(=O)[C@@]21C [PARTHENIN]
  EC50: 1.3 µM

## C=C1C(=O)O[C@@H]2/C=C(\C)CC/C=C(/C)C[C@@H](OC(=O)/C(=C/CO)CO)[C@@H]12 [EUPATORIOPICRIN]
  EC50: 3.3 µM

## C=C1C(=O)O[C@H]2C[C@H](C)[C@@H]3CC(=O)C(C)=C3C[C@H]12 [XERANTOLIDE]
  EC50: 6.1 µM

## C=C1C(=O)O[C@@H]2[C@H]1[C@@H](O)C[C@H](C)[C@@H]1CCC(=O)[C@@]21C [DESACETYLCONFERTIFLORIN]
  EC50: 8.71 µM

## C=C1C(=O)O[C@@H]2[C@H]1CC[C@H](C)[C@@H]1C=CC(=O)[C@@]21C [AMBROSIN]
  EC50: 1.83 µM

## C=C1C(=O)O[C@H]2[C@H]1[C@H](OC(=O)/C(C)=C\C)C[C@](O)(CCl)[C@@H]1[C@H](O)[C@H]3O[C@@]3(C)[C@]21O [EUPACHLOROXIN]
  EC50: 8.39 µM

## C=C1C(=O)O[C@@H]2/C=C(\C)CC/C=C(\C)C[C@@H](O)[C@@H]12 [EUPATOLIDE]
  EC50: 5 µM

## C=C1C(=O)O[C@@H]2/C=C3\CCC4OC4(C[C@H](OC(=O)C(C)C)[C@@H]12)C(O)OC3 (some centres undefined) [VERNOMYGDIN]
  EC50: 4.12 µM

## C=C(C)C(=O)O[C@H]1CC2=C[C@@H](C[C@@]3(C)O[C@@H]3[C@H]3OC(=O)C(=C)[C@@H]31)OC2=O [ELEPHANTOPIN]
  EC50: 2.51 µM

## C=C1C(=O)O[C@@H]2/C=C(\C)[C@@H](OC(C)=O)C/C=C(\C)C(OC(=O)[C@]3(C)O[C@@H]3C)C(O)[C@@H]12 (some centres undefined) [EUPATOCUNOXIN]
  EC50: 4.04 µM

## C=C1C(=O)O[C@H]2[C@H]1[C@H](OC(=O)/C(C)=C/C)C[C@]1(CO1)[C@@H]1[C@H](O)C=C(C)[C@]21O [EUPAROTIN]
  EC50: 0.56 µM

## C=C1C(=O)O[C@@H]2[C@H]1CC[C@H](C)[C@@H]1C[C@@H](O)C(=O)[C@@]21C
  EC50: 10 µM

## C=C1C(=O)O[C@H]2C[C@@]3(CO3)[C@@H]3C[C@H](OC(C)=O)C(=C)[C@]3(O)C[C@H]12 [ARCTOLIDE]
  EC50: 29 µM

## C=C1C(=O)O[C@H]2CC3=C[C@@H](C[C@]4(C)O[C@@H]4[C@@H](O)[C@H]12)OC3=O [ELEPHANTOL]
  EC50: 123 µM

## C=C1C(=O)O[C@H]2[C@H]1[C@H](OC(=O)/C(C)=C\C)C[C@](O)(CCl)[C@@H]1[C@H](OC(C)=O)C=C(C)[C@]21O [EUPACHLORIN ACETATE]
  EC50: 0.35 µM

## C=C1C(=O)O[C@@H]2[C@H]3C(CO)=CC(=O)C3=C(C)C[C@@H](O)[C@@H]12 [LACTUCIN]
  EC50: 260 µM

## C=C1C(=O)O[C@@H]2C3O[C@]3(C)CC/C=C(\C)CC[C@@H]12 (some centres undefined)
  EC50: 5.3 µM

## C=C1[C@@H]2[C@H]3OC(=O)C(=C)[C@@H]3CCC(=C)[C@H]2C[C@@H]1OC(=O)C=C(C)C [VERNOFLEXIN]
  EC50: 4.3 µM

## C=C[C@@]12COC(=O)C(=C)[C@@H]1[C@@H](O)[C@@H]1C(=C)C(=O)O[C@H]1C2 [VERNOMENIN]
  EC50: 127 µM

## C=C1C(=O)O[C@H]2[C@H]1[C@H](OC(=O)/C(C)=C\C)CC(=C)[C@@H]1[C@H](O)[C@H]3O[C@@]3(C)[C@@]12O [EUPATUNDIN]
  EC50: 1.04 µM

## C=C[C@@]12COC(=O)C(=C)[C@@H]1[C@H]1OC(=O)C(=C)[C@@H]1[C@@H](OC(C)=O)C2 [VERNOLEPIN ACETATE]
  EC50: 8.49 µM

## C=C1C(=O)O[C@@H]2/C=C(/C)[C@@H](OC(C)=O)C[C@H](O)/C(C)=C\[C@@H](OC(=O)[C@]3(C)O[C@@H]3C)[C@@H]12 [EUPACUNOXIN]
  EC50: 5 µM

## C=C1C(=O)O[C@H]2C[C@@H](C)[C@@H]3C=CC(=O)[C@@]3(C)[C@H](OC(C)=O)[C@H]12 [LINIFOLIN A]
  EC50: 2 µM

## C=C1C(=O)O[C@@H]2/C=C(\C)CC/C=C(\C)CC[C@@H]12 [COSTUNOLIDE]
  EC50: 2.46 µM

## C=C1C(=O)O[C@H]2/C=C(\C)C(=O)C/C=C(/C)C[C@H](OC(=O)/C(C)=C\C)[C@@H]12 [DEHYDRONOBILIN]
  EC50: 2.7 µM

## C=C1C(=O)O[C@H]2[C@H]1[C@H](OC(=O)/C(C)=C\C)C[C@]1(CO1)[C@@H]1[C@H](OC(C)=O)C=C(C)[C@]21O [EUPAROTIN ACETATE]
  EC50: 0.53 µM

## C=C1C(=O)O[C@@H]2/C=C(\CO)CC/C=C(\C)C[C@H](O)[C@@H]12 [SALONITENOLIDE]
  EC50: 9.1 µM

## C=C1C(=O)O[C@H]2[C@H]1[C@H](OC(=O)/C(C)=C\C)C[C@]1(CO1)[C@@H]1[C@H](O)[C@H]3O[C@@]3(C)[C@]21O [EUPATOROXIN]
  EC50: 7.14 µM

## C=C[C@@]12COC(=O)C(=C)[C@@H]1[C@H]1OC(=O)C(=C)[C@@H]1[C@@H](OC(=O)C(=C)CO)C2 [VERNODALIN]
  EC50: 5 µM

## C=C1C(=O)O[C@@H]2/C=C(/C)[C@@H](O)C[C@H]3O[C@]3(C)C[C@@H](OC(=O)/C(C)=C\C)[C@@H]12 [EPOXYNOBILIN]
  EC50: 0.99 µM

## C=C1C(=O)O[C@H]2[C@H]1[C@H](OC(=O)/C(C)=C\C)C[C@](O)(CCl)[C@@H]1[C@H](O)C=C(C)[C@]21O [EUPACHLORIN]
  EC50: 0.51 µM

## C=C1C(=O)O[C@@H]2/C=C(\C)C[C@H](O)/C=C(\C)CC[C@@H]12 [TAMAULIPIN A]
  EC50: 5.08 µM

## C=C1C(=O)O[C@@H]2[C@H]3C(CO)=CC(=O)C3=C(C)CC[C@@H]12 [DEOXYLACTUCIN]
  EC50: 3.1 µM
